From ChEMBL document CHEMBL1201862, “PubChem BioAssay data set” (2004)
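Growth conditions: 96-well plates. Treatment: test compound, 48 hours, 5 concentrations. Analysis: linear interpolation between bracketing concentrations; unreached endpoints set to highest concentration. GI50 = concentration required for 50% inhibition of growth.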 Calls of active or inactive are those of the source. Rule as the data show it: active = GI50 up to about 1.1 µM and inactive = higher.

Legend:
Assay in all cases: NCI tumour cell line growth inhibition, 48 h
KM-20L2 = tested on: KM-20L2
NCI-H460 = tested on: NCI-H460
SK-MEL-2 = tested on: SK-MEL-2
HCC 2998 = tested on: HCC 2998
SNB-19 = tested on: SNB-19
CAKI-1 = tested on: CAKI-1
HOP-62 = tested on: HOP-62
SN12C = tested on: SN12C
RXF 393 = tested on: RXF 393
NCI-H522 = tested on: NCI-H522
BT-549 = tested on: BT-549
SK-MEL-28 = tested on: SK-MEL-28
SR = tested on: SR
OVCAR-8 = tested on: OVCAR-8
OVCAR-3 = tested on: OVCAR-3
A498 = tested on: A498
TK-10 = tested on: TK-10
HCT-116 = tested on: HCT-116
HCT-15 = tested on: HCT-15
U-251 = tested on: U-251

Row | SMILES | GI50 (KM-20L2) | GI50 (NCI-H460) | GI50 (SK-MEL-2) | GI50 (HCC 2998) | GI50 (SNB-19) | GI50 (CAKI-1) | GI50 (HOP-62) | GI50 (SN12C) | GI50 (RXF 393) | GI50 (NCI-H522) | GI50 (BT-549) | GI50 (SK-MEL-28) | GI50 (SR) | GI50 (OVCAR-8) | GI50 (OVCAR-3) | GI50 (A498) | GI50 (TK-10) | GI50 (HCT-116) | GI50 (HCT-15) | GI50 (U-251)
1 | O=CN/C=C/c1cccc(O)c1 | > 100 µM (inactive) | 43.1 µM (inactive) | 58.7 µM (inactive) | > 74.6 µM (inactive) | 70.1 µM (inactive) | > 61.5 µM (inactive) | 39.3 µM (inactive) | 56.2 µM (inactive) | 60 µM (inactive) | 48.3 µM (inactive) | 8.26 µM (inactive) | > 84.1 µM (inactive) | > 43.7 µM (inactive) | 54.1 µM (inactive) | > 100 µM (inactive) | > 64.3 µM (inactive) | 88.3 µM (inactive) | 52.7 µM (inactive) | 72.1 µM | 56.9 µM (inactive)
2 | NCCCNc1ccc2c3c(nn2CCNCCO)-c2c(O)ccc(O)c2C(=O)c13 | 2.89 µM (inactive) | – | – | – | 0.354 µM (active) | – | 0.362 µM (active) | – | – | 1.18 µM (inactive) | 0.695 µM (active) | – | 0.253 µM (active) | – | 5.13 µM (inactive) | 1.82 µM (inactive) | 4.2 µM (inactive) | – | 5.01 µM | –
3 | O=C(/C(=C\c1ccccc1)CN1CCOCC1)c1ccc(Br)cc1 | 2.65 µM (inactive) | 3.01 µM (inactive) | 1.92 µM (inactive) | 16 µM (inactive) | 5.79 µM (inactive) | 1.88 µM (inactive) | 6.27 µM (inactive) | 2.06 µM (inactive) | 2.51 µM (inactive) | 1.28 µM (inactive) | – | 1.76 µM (inactive) | 1.16 µM (inactive) | 1.61 µM (inactive) | 2.44 µM (inactive) | 6.12 µM (inactive) | 5.37 µM (inactive) | 1.72 µM (inactive) | 1.93 µM | 2.51 µM (inactive)
4 | COc1ccc(/C=C2/C(=O)N(C(=O)c3ccccc3O)N=C2C)cc1OC | 24.9 µM (inactive) | 0.34 µM (active) | 0.605 µM (active) | > 24.3 µM (inactive) | – | 2.46 µM (inactive) | 1.99 µM (inactive) | 2.42 µM (inactive) | 0.0214 µM (active) | 1.71 µM (inactive) | 0.388 µM (active) | 23.9 µM (inactive) | 0.644 µM (active) | 0.568 µM (active) | 0.374 µM (active) | 0.121 µM (active) | 10.8 µM (inactive) | 0.275 µM (active) | 0.64 µM | 0.202 µM (active)
5 | CCCOC(=O)C1C(c2ccc(OC)cc2)NC(c2ccc(OC)cc2)C(C(=O)OCCC)S1(=O)=O (configuration not stated) | > 10 µM (inactive) | > 10 µM (inactive) | > 10 µM (inactive) | > 10 µM (inactive) | > 10 µM (inactive) | > 10 µM (inactive) | > 10 µM (inactive) | > 10 µM (inactive) | > 10 µM (inactive) | > 10 µM (inactive) | – | > 10 µM (inactive) | > 100 µM (inactive) | > 10 µM (inactive) | > 10 µM (inactive) | 85.3 µM (inactive) | > 10 µM (inactive) | > 10 µM (inactive) | > 10 µM | > 10 µM (inactive)
